Assay results as given in patent publication US5349060A, “Rapamycin 31-ester with N,N-dimethylglycine derivatives useful as immunosuppressive agents” (American Home Products Corporation, priority 1993, dated 1994).
Where “and” joins values, the source holds several entries; their conditions need not be identical. Equal values may be shown once. Where a name gives a salt, the structure may show the parent alone.

Columns and labels:
[1] = test system: pinch skin graft from male BALB/c donors transplanted to male C3H recipients; assay: skin graft assay (survival time of pinch skin graft); format: in vivo, mouse (BALB/c donors; conditions: intraperitoneally once daily for 6 consecutive days; rejection = 95% area necrosis or suture line off; typically rejected within 6-7 days without immunosuppressive agent
Protocol: The second in vivo test procedure is designed to determine the survival time of pinch skin graft from male BALB/c donors transplanted to male C3H recipients. The method is adapted from Billingham R. E. and Medawar P. B., J. Exp. Biol. 28:385-402, (1951). Briefly, a pinch skin graft from the donor is grafted on the dorsum of the recipient as an allograft and an isograft is used as control in the same region. The recipients are treated with the test compound, intraperitoneally once daily for 6 consecutive days. Untreated recipients serve as rejection control. The graft is monitored daily and observations are recorded until the graft becomes 95% area necrosis or the suture line is off. This is considered as the rejection day. The graft survival time is one day before the rejection day. The mean graft survival time (number of days ±S.D.) of the drug treatment group is compared with the control group.

[2] = test system: cells from the thymus of normal BALB/c mice (thymocyte proliferation); assay: comitogen-induced thymocyte proliferation procedure (LAF); format: cell-based; conditions: percent change in counts per minute from non-drug treated controls; for percent change in thymocyte proliferation (counts per minute) versus untreated control at 0.01 µM / percent change in thymocyte proliferation (counts per minute) versus untreated control at 0.1 µM: Mus musculus, 72 h, 72 h culture with PHA and IL-1; for percent change in thymocyte proliferation (counts per minute) versus untreated control at 0.01 µM: read-out: Percentage Inhibition in LAF Assay at 10 nM concentration, Analogs; for percent change in thymocyte proliferation (counts per minute) versus untreated control at 0.1 µM: read-out: Percentage Inhibition in LAF Assay at 100 nM concentration, Analogs
Protocol: Briefly, cells from the thymus of normal BALB/c mice were cultured for 72 hours with PHA and IL-1 and pulsed with tritiated thymidine during the last six hours. Cells are cultured with and without various concentrations of rapamycin, cyclospofin A, or test compound. Cells are harvested and incorporated; radioactivity is determined. Inhibition of lymphoproliferation is assessed in percent change in counts per minute from non-drug treated controls.

[3] = test system: adjuvant arthritis model, a model for rheumatoid arthritis; conditions: in vivo; cited from earlier work
[4] = test system: experimental allergic encephalomyelitis model, a model for multiple sclerosis; conditions: in vivo; cited from earlier work
Candida albicans = conditions: particularly against Candida albicans, both in vitro and in vivo; cited from earlier work
[5] = test system: formation of IgE-like antibodies; conditions: cited from earlier work
[6] = alone or in combination with picibanil; cited from earlier work

SMILES | Skin Graft Assay, Analogs (mean graft survival time, days ± SD) [1] [days] | percent change in thymocyte proliferation (counts per minute) versus untreated control at 0.01 µM ([2]; 10 nM) [%] | percent change in thymocyte proliferation (counts per minute) versus untreated control at 0.1 µM ([2]; 100 nM) [%] | also measured
CO[C@H]1C[C@@H]2CC[C@@H](C)[C@@](O)(O2)C(=O)C(=O)N2CCCC[C@H]2C(=O)O[C@H]([C@H](C)C[C@@H]2CC[C@@H](OC(=O)NS(=O)(=O)c3ccccc3)[C@H](OC)C2)CC(=O)[C@H](C)/C=C(\C)[C@@H](OC(=O)CN(C)C)[C@@H](OC)C(=O)[C@H](C)C[C@H](C)/C=C/C=C/C=C/1C [Example 5, Rapamycin 31-Ester With N,N-dimethylglycine HCl Salt 42-Ester With Phenylsulfonyl Carbamic Acid] | 10.00 ± 0.57 | 1 | -35 | 
CO[C@H]1C[C@@H]2CC[C@@H](C)[C@@](O)(O2)C(=O)C(=O)N2CCCC[C@H]2C(=O)O[C@H]([C@H](C)C[C@@H]2CC[C@@H](OC(=O)Nc3ccc(F)cc3)[C@H](OC)C2)CC(=O)[C@H](C)/C=C(\C)[C@@H](OC(=O)CN(C)C)[C@@H](OC)C(=O)[C@H](C)C[C@H](C)/C=C/C=C/C=C/1C [Example 4, Rapamycin 31-Ester With N,N-dimethylglycine HCl Salt 41-Ester With 4-fluorophenyl Carbamic Acid] | 8.17 ± 0.41 | -38 | -94 | 
CO[C@H]1C[C@@H]2CC[C@@H](C)[C@@](O)(O2)C(=O)C(=O)N2CCCC[C@H]2C(=O)O[C@H]([C@H](C)C[C@@H]2CC[C@@H](OS(=O)(=O)c3ccc(C)cc3)[C@H](OC)C2)CC(=O)[C@H](C)/C=C(\C)[C@@H](OC(=O)CN(C)C)[C@@H](OC)C(=O)[C@H](C)C[C@H](C)/C=C/C=C/C=C/1C [Example 1, Rapamycin 31-Ester With N,N-dimethylglycine HCl Salt 42-Ester With p-toluenesulfonic Acid] |  | -6 | -74 | 
CO[C@H]1C[C@@H]2CC[C@@H](C)[C@@](O)(O2)C(=O)C(=O)N2CCCC[C@H]2C(=O)O[C@H]([C@H](C)C[C@@H]2CC[C@@H](OS(=O)(=O)c3cccc4c(N(C)C)cccc34)[C@H](OC)C2)CC(=O)[C@H](C)/C=C(\C)[C@@H](OC(=O)CN(C)C)[C@@H](OC)C(=O)[C@H](C)C[C@H](C)/C=C/C=C/C=C/1C [Example 8, Rapamycin 31-Ester With N,N-dimethylglycine 42-Ester With 5-(dimethylamino)naphthalene-1-sulfonic Acid] |  | 13 | -54 | 
CO[C@H]1C[C@@H]2CC[C@@H](C)[C@@](O)(O2)C(=O)C(=O)N2CCCC[C@H]2C(=O)O[C@H]([C@H](C)C[C@@H]2CC[C@@H](O)[C@H](OC)C2)CC(=O)[C@H](C)/C=C(\C)[C@@H](OC(=O)CN(C)C)[C@@H](OC)C(O)[C@H](C)C[C@H](C)/C=C/C=C/C=C/1C (stereo partly drawn) [Example 6, 33-Deoxy-33-hydroxyrapamycin 31-Ester With N,N-dimethylglycine HCl Salt] | 9.50 ± 1.22 | -13 | -76 | 
CO[C@H]1C[C@@H]2CC[C@@H](C)[C@@](O)(O2)C(=O)C(=O)N2CCCC[C@H]2C(=O)O[C@H]([C@H](C)C[C@@H]2CC[C@@H](OC(=O)Nc3ccccc3)[C@H](OC)C2)CC(=O)[C@H](C)/C=C(\C)[C@@H](OC(=O)CN(C)C)[C@@H](OC)C(=O)[C@H](C)C[C@H](C)/C=C/C=C/C=C/1C [Example 3, Rapamycin 31-Ester With N,N-dimethylglycine HCl Salt 42-Ester With Phenylcarbamic Acid] |  | -14 | -82 | 
CO[C@H]1C[C@@H]2CC[C@@H](C)[C@@](O)(O2)C(=O)C(=O)N2CCCC[C@H]2C(=O)O[C@H]([C@H](C)C[C@@H]2CC[C@@H](OS(=O)(=O)c3cccc4cccnc34)[C@H](OC)C2)CC(=O)[C@H](C)/C=C(\C)[C@@H](OC(=O)CN(C)C)[C@@H](OC)C(=O)[C@H](C)C[C@H](C)/C=C/C=C/C=C/1C [Example 7, Rapamycin 31-Ester With N,N-dimethylglycine 42-Ester With 8-quinolinesulfonic Acid] | 9.33 ± 1.22 | -62 | -94 | 
CO[C@H]1C[C@@H]2CC[C@@H](C)[C@@](O)(O2)C(=O)C(=O)N2CCCC[C@H]2C(=O)O[C@H]([C@H](C)C[C@@H]2CC[C@@H](O)[C@H](OC)C2)CC(=O)[C@H](C)/C=C(\C)[C@@H](O)[C@@H](OC)C(=O)[C@H](C)C[C@H](C)/C=C/C=C/C=C/1C [Rapamycin] |  |  |  | effect in the adjuvant arthritis model [3]: effective; effect in the experimental allergic encephalomyelitis model [4]: effective; antifungal activity (Candida albicans): antifungal activity; inhibition of the formation of IgE-like antibodies [5]: effectively inhibited; antitumor activity [6]: antitumor activity; Percentage Inhibition in LAF Assay at 10 nM concentration, Rapamycin ([2]; 10 nM, rapamycin comparator): -85% and -89%; Percentage Inhibition in LAF Assay at 100 nM concentration, Rapamycin ([2]; 100 nM, rapamycin comparator, 0.1 µM): -97% and -96% and -94% and -95%
CO[C@H]1C[C@@H]2CC[C@@H](C)[C@@](O)(O2)C(=O)C(=O)N2CCCC[C@H]2C(=O)O[C@H]([C@H](C)C[C@@H]2CC[C@@H](OC(C)=O)[C@H](OC)C2)CC(=O)[C@H](C)/C=C(\C)[C@@H](OC(=O)CN(C)C)[C@@H](OC)C(=O)[C@H](C)C[C@H](C)/C=C/C=C/C=C/1C [Example 2, Rapamycin 31-Ester With N,N-dimethylglycine HCl Salt 42-Ester With Acetic Acid] |  | -59 | -96 | 
